# Reference: PubChem BioAssay AID1963838 (Molecular Pharmacology Branch, DTP, NCI, 2024)
# Test system: 855422-203-R-J1-PDC complex spheroid viability
# Assay: Anticancer human tumor 855422-203-R-J1-PDC patient-derived bladder carcinoma cell line growth inhibition [POLQ]
# Conditions: for IC50: curve of first compound; for viability, T/C: stronger effect = lower value
# How it was run: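 Growth inhibition in 3D: complex spheroids (tumor PDC, HUVEC, MSC) treated with POLQ inhibitor combinations; where Cmax unknown, highest tested concentration 10 microM, except SN-38 at 1 microM.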
# [1] = second compound 0.0316 µM, first compound 0.0316 µM
# [2] = second compound 0.0316 µM, first compound 0.1 µM
# [3] = second compound 0.0316 µM, first compound 0.316 µM
# [4] = second compound 0.0316 µM, first compound 1 µM
# [5] = second compound 0.0316 µM, first compound 3.16 µM
# [6] = second compound 0.0316 µM, first compound 10 µM
# [7] = second compound 0.1 µM, first compound 0.0316 µM
# [8] = second compound 0.1 µM, first compound 0.1 µM
# [9] = second compound 0.1 µM, first compound 0.316 µM
# [10] = second compound 0.1 µM, first compound 1 µM
# [11] = second compound 0.1 µM, first compound 3.16 µM
# [12] = second compound 0.1 µM, first compound 10 µM
# [13] = second compound 0.316 µM, first compound 0.0316 µM
# [14] = second compound 0.316 µM, first compound 0.1 µM
# [15] = second compound 0.316 µM, first compound 0.316 µM
# [16] = second compound 0.316 µM, first compound 1 µM
# [17] = second compound 0.316 µM, first compound 3.16 µM
# [18] = second compound 0.316 µM, first compound 10 µM
# [19] = second compound 1 µM, first compound 0.0316 µM
# [20] = second compound 1 µM, first compound 0.1 µM
# [21] = second compound 1 µM, first compound 0.316 µM
# [22] = second compound 1 µM, first compound 1 µM
# [23] = second compound 1 µM, first compound 3.16 µM
# [24] = second compound 1 µM, first compound 10 µM
# [25] = second compound 3.16 µM, first compound 0.0316 µM
# [26] = second compound 3.16 µM, first compound 0.1 µM
# [27] = second compound 3.16 µM, first compound 0.316 µM
# [28] = second compound 3.16 µM, first compound 1 µM
# [29] = second compound 3.16 µM, first compound 3.16 µM
# [30] = second compound 3.16 µM, first compound 10 µM
# [31] = second compound 10 µM, first compound 0.0316 µM
# [32] = second compound 10 µM, first compound 0.1 µM
# [33] = second compound 10 µM, first compound 0.316 µM
# [34] = second compound 10 µM, first compound 1 µM
# [35] = second compound 10 µM, first compound 3.16 µM
# [36] = second compound 10 µM, first compound 10 µM
# 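Note: spheroids exposed to compounds for seven days before readout.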
structure (smiles),measurement,setting,value
CC(=O)O[C@H]1C(=O)[C@@]2(C)[C@H]([C@H](OC(=O)c3ccccc3)[C@]3(O)C[C@H](OC(=O)[C@H](O)[C@@H](NC(=O)c4ccccc4)c4ccccc4)C(C)=C1C3(C)C)[C@]1(OC(C)=O)CO[C@@H]1C[C@@H]2O + COC1C(OC(N)=O)C(O)C(Oc2ccc3c(O)c(NC(=O)c4ccc(O)c(CC=C(C)C)c4)c(=O)oc3c2C)OC1(C)C,IC50,second compound 0.0316 µM,< 9.49 nM
same,IC50,second compound 0.1 µM,< 9.49 nM
same,IC50,second compound 0.316 µM,< 9.49 nM
same,IC50,second compound 1 µM,< 9.49 nM
same,IC50,second compound 3.16 µM,< 9.49 nM
same,IC50,second compound 10 µM,< 9.49 nM
same,"viability, T/C","second compound 0.0316 µM, first compound 0.00949 µM",5.68%
same,"viability, T/C","second compound 0.0316 µM, first compound 0.03 µM",5.82%
same,"viability, T/C","second compound 0.0316 µM, first compound 0.0949 µM",5%
same,"viability, T/C","second compound 0.0316 µM, first compound 0.3 µM",6.46%
same,"viability, T/C","second compound 0.0316 µM, first compound 0.949 µM",5.84%
same,"viability, T/C","second compound 0.0316 µM, first compound 3 µM",5.17%
same,"viability, T/C","second compound 0.1 µM, first compound 0.00949 µM",5.77%
same,"viability, T/C","second compound 0.1 µM, first compound 0.03 µM",6.65%
same,"viability, T/C","second compound 0.1 µM, first compound 0.0949 µM",5.15%
same,"viability, T/C","second compound 0.1 µM, first compound 0.3 µM",4.93%
same,"viability, T/C","second compound 0.1 µM, first compound 0.949 µM",5.98%
same,"viability, T/C","second compound 0.1 µM, first compound 3 µM",4.74%
same,"viability, T/C","second compound 0.316 µM, first compound 0.00949 µM",8.12%
same,"viability, T/C","second compound 0.316 µM, first compound 0.03 µM",6.43%
same,"viability, T/C","second compound 0.316 µM, first compound 0.0949 µM",5.94%
same,"viability, T/C","second compound 0.316 µM, first compound 0.3 µM",4.73%
same,"viability, T/C","second compound 0.316 µM, first compound 0.949 µM",4.96%
same,"viability, T/C","second compound 0.316 µM, first compound 3 µM",5.68%
same,"viability, T/C","second compound 1 µM, first compound 0.00949 µM",7.33%
same,"viability, T/C","second compound 1 µM, first compound 0.03 µM",6.18%
same,"viability, T/C","second compound 1 µM, first compound 0.0949 µM",5.96%
same,"viability, T/C","second compound 1 µM, first compound 0.3 µM",5.56%
same,"viability, T/C","second compound 1 µM, first compound 0.949 µM",6.11%
same,"viability, T/C","second compound 1 µM, first compound 3 µM",6.43%
same,"viability, T/C","second compound 3.16 µM, first compound 0.00949 µM",6.84%
same,"viability, T/C","second compound 3.16 µM, first compound 0.03 µM",6.73%
same,"viability, T/C","second compound 3.16 µM, first compound 0.0949 µM",5.34%
same,"viability, T/C","second compound 3.16 µM, first compound 0.3 µM",5.02%
same,"viability, T/C","second compound 3.16 µM, first compound 0.949 µM",5.62%
same,"viability, T/C","second compound 3.16 µM, first compound 3 µM",6.32%
same,"viability, T/C","second compound 10 µM, first compound 0.00949 µM",7.25%
same,"viability, T/C","second compound 10 µM, first compound 0.03 µM",6.33%
same,"viability, T/C","second compound 10 µM, first compound 0.0949 µM",5.51%
same,"viability, T/C","second compound 10 µM, first compound 0.3 µM",5.78%
same,"viability, T/C","second compound 10 µM, first compound 0.949 µM",5.59%
same,"viability, T/C","second compound 10 µM, first compound 3 µM",6.4%
COc1cccc2c1C(=O)c1c(O)c3c(c(O)c1C2=O)CC(O)(C(=O)CO)CC3OC1CC(N)C(O)C(C)O1 (stereo unspecified) + COC1C(OC(N)=O)C(O)C(Oc2ccc3c(O)c(NC(=O)c4ccc(O)c(CC=C(C)C)c4)c(=O)oc3c2C)OC1(C)C,IC50,second compound 0.0316 µM,< 31.6 nM
same,IC50,second compound 0.1 µM,< 31.6 nM
same,IC50,second compound 0.316 µM,< 31.6 nM
same,IC50,second compound 1 µM,< 31.6 nM
same,IC50,second compound 3.16 µM,< 31.6 nM
same,IC50,second compound 10 µM,< 31.6 nM
same,"viability, T/C",[1],12.4%
same,"viability, T/C",[2],11.1%
same,"viability, T/C",[3],1.99%
same,"viability, T/C",[4],0.29%
same,"viability, T/C",[5],0.38%
same,"viability, T/C",[6],1.85%
same,"viability, T/C",[7],15.1%
same,"viability, T/C",[8],10.9%
same,"viability, T/C",[9],3.53%
same,"viability, T/C",[10],0.21%
same,"viability, T/C",[11],0.32%
same,"viability, T/C",[12],1.27%
same,"viability, T/C",[13],14.5%
same,"viability, T/C",[14],10.1%
same,"viability, T/C",[15],1.84%
same,"viability, T/C",[16],0.63%
same,"viability, T/C",[17],0.37%
same,"viability, T/C",[18],1.74%
same,"viability, T/C",[19],18.5%
same,"viability, T/C",[20],10.4%
same,"viability, T/C",[21],2.23%
same,"viability, T/C",[22],0.32%
same,"viability, T/C",[23],0.3%
same,"viability, T/C",[24],2.92%
same,"viability, T/C",[25],15.4%
same,"viability, T/C",[26],10.4%
same,"viability, T/C",[27],2.63%
same,"viability, T/C",[28],0.31%
same,"viability, T/C",[29],0.58%
same,"viability, T/C",[30],1.48%
same,"viability, T/C",[31],16.2%
same,"viability, T/C",[32],9.82%
same,"viability, T/C",[33],2.61%
same,"viability, T/C",[34],0.29%
same,"viability, T/C",[35],0.47%
same,"viability, T/C",[36],1.58%
O=c1[nH]cc(F)c(=O)[nH]1 + COC1C(OC(N)=O)C(O)C(Oc2ccc3c(O)c(NC(=O)c4ccc(O)c(CC=C(C)C)c4)c(=O)oc3c2C)OC1(C)C,IC50,second compound 0.0316 µM,463 nM
same,IC50,second compound 0.1 µM,403 nM
same,IC50,second compound 0.316 µM,370 nM
same,IC50,second compound 1 µM,489 nM
same,IC50,second compound 3.16 µM,518 nM
same,IC50,second compound 10 µM,431 nM
same,"viability, T/C",[1],101%
same,"viability, T/C",[2],119%
same,"viability, T/C",[3],59.9%
same,"viability, T/C",[4],40.1%
same,"viability, T/C",[5],25.9%
same,"viability, T/C",[6],23.6%
same,"viability, T/C",[7],107%
same,"viability, T/C",[8],107%
same,"viability, T/C",[9],55%
same,"viability, T/C",[10],34.5%
same,"viability, T/C",[11],28%
same,"viability, T/C",[12],22.3%
same,"viability, T/C",[13],107%
same,"viability, T/C",[14],114%
same,"viability, T/C",[15],53.5%
same,"viability, T/C",[16],35.1%
same,"viability, T/C",[17],26.3%
same,"viability, T/C",[18],23.6%
same,"viability, T/C",[19],118%
same,"viability, T/C",[20],100%
same,"viability, T/C",[21],59.2%
same,"viability, T/C",[22],34%
same,"viability, T/C",[23],26.7%
same,"viability, T/C",[24],21.5%
same,"viability, T/C",[25],98.8%
same,"viability, T/C",[26],93.4%
same,"viability, T/C",[27],58.4%
same,"viability, T/C",[28],37.5%
same,"viability, T/C",[29],28.2%
same,"viability, T/C",[30],22%
same,"viability, T/C",[31],117%
same,"viability, T/C",[32],101%
same,"viability, T/C",[33],54.7%
same,"viability, T/C",[34],35.3%
same,"viability, T/C",[35],26.2%
same,"viability, T/C",[36],23.4%
